Test results from ChEMBL document CHEMBL1201862, “PubChem BioAssay data set” (2004).
Several values for one entry are separate records, joined by “and”; a condition that tells them apart may be missing. Identical values can stand only once.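 A five-concentration, 48-hour dose response in 96-well plates underlies each endpoint, interpolated linearly between surrounding concentrations. The concentration for 50% growth inhibition is given as GI50.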 Activity calls are given as the source filed them. Cut-off read from the data, not from the text of the source: active = GI50 up to about 1.1 µM and inactive = higher.

Key:
Assay in all cases: DTP human tumour cell line panel, 48 h
MDA-MB-435 = tested on: MDA-MB-435
CAKI-1 = tested on: CAKI-1
HCT-116 = tested on: HCT-116
OVCAR-4 = tested on: OVCAR-4
MDA-MB-231 = tested on: MDA-MB-231
HL-60 = tested on: HL-60
HCC 2998 = tested on: HCC 2998
NCI-H23 = tested on: NCI-H23
SR = tested on: SR
SW-620 = tested on: SW-620
LOX IMVI = tested on: LOX IMVI
NCI-H460 = tested on: NCI-H460
IGROV-1 = tested on: IGROV-1
786-0 = tested on: 786-0
OVCAR-8 = tested on: OVCAR-8
SK-MEL-5 = tested on: SK-MEL-5
A498 = tested on: A498
NCI/ADR-RES = tested on: NCI/ADR-RES
SF-539 = tested on: SF-539
SNB-75 = tested on: SNB-75
HCT-15 = tested on: HCT-15
T47D = tested on: T47D
RXF 393 = tested on: RXF 393
PC-3 = tested on: PC-3
ACHN = tested on: ACHN
SF-268 = tested on: SF-268
UO-31 = tested on: UO-31
DU-145 = tested on: DU-145
SNB-19 = tested on: SNB-19
OVCAR-3 = tested on: OVCAR-3
MDA-N = tested on: MDA-N
MOLT-4 = tested on: MOLT-4
Hs-578T = tested on: Hs-578T
NCI-H226 = tested on: NCI-H226
KM12 = tested on: KM12
Malme-3M = tested on: Malme-3M
A549 = tested on: A549
SN12C = tested on: SN12C
M14 = tested on: M14
U-251 = tested on: U-251
SK-MEL-2 = tested on: SK-MEL-2
COLO 205 = tested on: COLO 205
RPMI-8226 = tested on: RPMI-8226
SK-OV-3 = tested on: SK-OV-3
TK-10 = tested on: TK-10
SF-295 = tested on: SF-295
OVCAR-5 = tested on: OVCAR-5
HOP-92 = tested on: HOP-92
HT-29 = tested on: HT-29
SK-MEL-28 = tested on: SK-MEL-28
UACC-257 = tested on: UACC-257
MCF7 = tested on: MCF7
UACC-62 = tested on: UACC-62
NCI-H522 = tested on: NCI-H522
HOP-62 = tested on: HOP-62
K562 = tested on: K562
CCRF-CEM = tested on: CCRF-CEM
BT-549 = tested on: BT-549
EKVX = tested on: EKVX
DMS-114 = tested on: DMS-114
LXFL 529 = tested on: LXFL 529
M19-MEL = tested on: M19-MEL
KM-20L2 = tested on: KM-20L2
SNB-78 = tested on: SNB-78

O=C(O)CCSC(CC1(c2ccc(Cl)cc2)NC(=O)CCS1)c1ccccc1 (centres undefined)
GI50 (MDA-MB-435): 14.3 µM (inactive) | GI50 (CAKI-1): 16.9 µM (inactive) | GI50 (HCT-116): 4.71 µM (inactive) | GI50 (OVCAR-4): 15 µM (inactive) | GI50 (MDA-MB-231): 22.1 µM (inactive) | GI50 (HL-60): 3.44 µM (inactive) | GI50 (HCC 2998): 10 µM (inactive) | GI50 (NCI-H23): 20.9 µM (inactive) | GI50 (SR): 8.32 µM (inactive) | GI50 (SW-620): 5.12 µM (inactive) | GI50 (LOX IMVI): 14.6 µM (inactive) | GI50 (NCI-H460): 16.8 µM (inactive) | GI50 (IGROV-1): 12.1 µM (inactive) | GI50 (786-0): 6.7 µM (inactive) | GI50 (OVCAR-8): 19.9 µM (inactive) | GI50 (SK-MEL-5): 13 µM (inactive) | GI50 (A498): 21.5 µM (inactive) | GI50 (NCI/ADR-RES): 20.8 µM (inactive) | GI50 (SF-539): 7.98 µM (inactive) | GI50 (SNB-75): 17.1 µM (inactive) | GI50 (HCT-15): 8.09 µM | GI50 (T47D): 16.1 µM (inactive) | GI50 (RXF 393): 21.7 µM (inactive) | GI50 (PC-3): 18.7 µM (inactive) | GI50 (ACHN): 25.5 µM (inactive) | GI50 (SF-268): 18 µM (inactive) | GI50 (UO-31): 20.7 µM (inactive) | GI50 (DU-145): > 39.4 µM (inactive) | GI50 (SNB-19): 23.8 µM (inactive) | GI50 (OVCAR-3): 20.2 µM (inactive) | GI50 (MDA-N): 12.6 µM (inactive) | GI50 (MOLT-4): 12.5 µM (inactive) | GI50 (Hs-578T): 12.9 µM (inactive) | GI50 (NCI-H226): 17.3 µM (inactive) | GI50 (KM12): 3.56 µM (inactive) | GI50 (Malme-3M): 22.9 µM (inactive) | GI50 (A549): 24.2 µM (inactive) | GI50 (SN12C): 18.3 µM (inactive) | GI50 (M14): 19.4 µM (inactive) | GI50 (U-251): 10.4 µM (inactive) | GI50 (SK-MEL-2): 18.7 µM (inactive) | GI50 (COLO 205): 22.3 µM (inactive) | GI50 (RPMI-8226): 3.56 µM (inactive) | GI50 (SK-OV-3): 20.5 µM (inactive) | GI50 (TK-10): 18.4 µM (inactive) | GI50 (SF-295): 21.2 µM (inactive) | GI50 (OVCAR-5): 17.9 µM (inactive) | GI50 (HOP-92): 33.8 µM (inactive) | GI50 (HT-29): 17.3 µM (inactive) | GI50 (SK-MEL-28): 17.9 µM (inactive) | GI50 (UACC-257): 21.9 µM (inactive) | GI50 (MCF7): 3.87 µM (inactive) | GI50 (UACC-62): 19.9 µM (inactive) | GI50 (NCI-H522): 15.1 µM (inactive) | GI50 (HOP-62): 21.2 µM (inactive) | GI50 (K562): 10.8 µM (inactive) | GI50 (CCRF-CEM): 1.9 µM (inactive) | GI50 (BT-549): 17 µM (inactive) | GI50 (EKVX): 21.5 µM (inactive)

Nc1nc(Cl)cc(NCC2(CO)CCCC2)n1
GI50 (MDA-MB-435): > 100 µM (inactive) | GI50 (CAKI-1): > 100 µM (inactive) | GI50 (HCT-116): > 100 µM (inactive) | GI50 (OVCAR-4): 19 µM (inactive) | GI50 (MDA-MB-231): > 100 µM (inactive) | GI50 (HL-60): > 100 µM (inactive) | GI50 (HCC 2998): > 100 µM (inactive) | GI50 (NCI-H23): 65.6 µM (inactive) | GI50 (SR): > 100 µM (inactive) | GI50 (SW-620): > 100 µM (inactive) | GI50 (LOX IMVI): 59.7 µM (inactive) | GI50 (NCI-H460): > 100 µM (inactive) | GI50 (IGROV-1): > 100 µM (inactive) | GI50 (786-0): > 100 µM (inactive) | GI50 (OVCAR-8): > 100 µM (inactive) | GI50 (SK-MEL-5): 80.4 µM (inactive) | GI50 (A498): > 100 µM (inactive) | GI50 (NCI/ADR-RES): 55.8 µM (inactive) | GI50 (SF-539): > 100 µM (inactive) | GI50 (SNB-75): 85.7 µM (inactive) | GI50 (HCT-15): > 100 µM | GI50 (T47D): > 100 µM (inactive) | GI50 (RXF 393): > 100 µM (inactive) | GI50 (PC-3): > 100 µM (inactive) | GI50 (ACHN): > 100 µM (inactive) | GI50 (SF-268): > 100 µM (inactive) | GI50 (UO-31): > 100 µM (inactive) | GI50 (DU-145): > 100 µM (inactive) | GI50 (SNB-19): > 100 µM (inactive) | GI50 (OVCAR-3): > 100 µM (inactive) | GI50 (MDA-N): > 100 µM (inactive) | GI50 (MOLT-4): > 100 µM (inactive) | GI50 (Hs-578T): > 100 µM (inactive) | GI50 (NCI-H226): > 100 µM (inactive) | GI50 (KM12): > 100 µM (inactive) | GI50 (Malme-3M): > 100 µM (inactive) | GI50 (A549): > 100 µM (inactive) | GI50 (SN12C): > 100 µM (inactive) | GI50 (M14): > 100 µM (inactive) | GI50 (U-251): > 100 µM (inactive) | GI50 (SK-MEL-2): > 100 µM (inactive) | GI50 (COLO 205): > 100 µM (inactive) | GI50 (RPMI-8226): > 100 µM (inactive) | GI50 (SK-OV-3): > 100 µM (inactive) | GI50 (TK-10): > 100 µM (inactive) | GI50 (SF-295): > 100 µM (inactive) | GI50 (OVCAR-5): > 100 µM (inactive) | GI50 (HOP-92): 52.5 µM (inactive) | GI50 (HT-29): > 100 µM (inactive) | GI50 (SK-MEL-28): > 100 µM (inactive) | GI50 (UACC-257): 65.8 µM (inactive) | GI50 (MCF7): 75.2 µM (inactive) | GI50 (UACC-62): > 100 µM (inactive) | GI50 (NCI-H522): 49.1 µM (inactive) | GI50 (HOP-62): > 100 µM (inactive) | GI50 (K562): > 100 µM (inactive) | GI50 (CCRF-CEM): > 100 µM (inactive) | GI50 (BT-549): > 100 µM (inactive) | GI50 (EKVX): > 100 µM (inactive)

CCCSc1nc(-c2ccc(OC)cc2)c(C#N)c(=O)n1C1OC(COC(C)=O)C(OC(C)=O)C(OC(C)=O)C1OC(C)=O (centres undefined)
GI50 (OVCAR-4): > 100 µM (inactive) | GI50 (DMS-114): > 100 µM (inactive) | GI50 (HL-60): > 100 µM (inactive) | GI50 (NCI-H23): > 100 µM (inactive) | GI50 (SR): > 100 µM (inactive) | GI50 (NCI-H460): > 100 µM (inactive) | GI50 (SF-539): > 100 µM (inactive) | GI50 (SNB-75): 42.3 µM (inactive) | GI50 (ACHN): > 100 µM (inactive) | GI50 (SF-268): > 100 µM (inactive) | GI50 (LXFL 529): > 100 µM (inactive) | GI50 (MOLT-4): > 100 µM (inactive) | GI50 (KM12): > 100 µM (inactive) | GI50 (SK-MEL-2): > 100 µM (inactive) | GI50 (COLO 205): > 100 µM (inactive) | GI50 (RPMI-8226): > 100 µM (inactive) | GI50 (SK-OV-3): > 100 µM (inactive) | GI50 (M19-MEL): > 100 µM (inactive) | GI50 (KM-20L2): > 100 µM (inactive) and 54.6 µM (inactive) | GI50 (HT-29): > 100 µM (inactive) and 65.9 µM (inactive) | GI50 (SK-MEL-28): > 100 µM (inactive) | GI50 (UACC-62): > 100 µM (inactive) | GI50 (SNB-78): 99.3 µM (inactive) | GI50 (NCI-H522): > 100 µM (inactive) | GI50 (K562): > 100 µM (inactive) | GI50 (CCRF-CEM): > 100 µM (inactive)
